Test results published in publication PMC5322338 (Scientific Reports, 2017).

How the values were obtained:
trypsin [1] = test: IQF substrate hydrolysis kinetics with trypsin; format: biochemical; conditions: for kcat/Km values: ACC-GGLSX*IVK(DNP)G substrates, residue named = P1, trypsin
Experimental: All kinetic measurements were performed using a Spectra Max Gemini XPS spectrofluorimeter (Molecular Devices) at 37 °C. […] The substrate concentrations were varied, and the enzyme concentration was kept constant in each assay; the total reaction volume was 100 μl. Measurements were conducted for 30 min, and only the linear part of the progress curve was used to determine the reaction velocity. The measurements were repeated, and the data presented are the average of at least three measurements. The catalytic parameters kcat and KM were established using GraphPad Prism software to directly fit the initial velocities and initial substrate concentrations to the Michaelis-Menten equation using non-linear regression analysis.
Trypsin was assayed in a buffer containing 0.05 M Tris, 0.15 M NaCl, and 0.01% Triton X100 at pH 7.6. The enzyme was incubated with the assay buffer for 10 min at 37 °C prior to the substrate addition and the measurement. Eight internally quenched substrates were tested in the assay. The trypsin concentration for substrates containing Arg and Lys at P1 was 0.1 nM; for Arg(Me) substrates, the enzyme concentration was 30 nM; and for all other substrates, the enzyme concentration was 200 nM.

caspase-8 [2] = test: caspase-8 in caspase buffer supplemented with 1.0 M sodium citrate, IQF library screening and kinetics; conditions: human, 37 °C, up to 30 min
caspase-9 = caspase-9 in caspase buffer supplemented with 1.0 M sodium citrate, IQF library screening and kinetics; conditions: human, 37 °C, up to 30 min
caspase-10 = caspase-10 in caspase buffer supplemented with 1.0 M sodium citrate, IQF library screening and kinetics; conditions: human, 37 °C, up to 30 min
Trypsin [3] = test: trypsin in 0.05 M Tris, 0.15 M NaCl, 0.01% Triton X100, pH 7.6; conditions: 37 °C, up to 30 min
caspase-3 [4] = test: caspase-3 in caspase buffer, IQF library screening and kinetics; conditions: human, 37 °C, up to 30 min
caspase-7 [5] = test: caspase-7 in caspase buffer, IQF library screening and kinetics; conditions: human, 37 °C, up to 30 min
caspase-8 [6] = target: T1, caspase-8 (Homo sapiens, UniProt Q14790); test: IQF substrate hydrolysis kinetics with caspase-8; format: biochemical; conditions: substrate 4-80 μM, Pipes buffer pH 7.2-7.4 with 1 M sodium citrate, 37 °C, mean of at least three, SD <10%
T1 construct: made in house
T1 sequence (Q14790 217-374 limits assumed): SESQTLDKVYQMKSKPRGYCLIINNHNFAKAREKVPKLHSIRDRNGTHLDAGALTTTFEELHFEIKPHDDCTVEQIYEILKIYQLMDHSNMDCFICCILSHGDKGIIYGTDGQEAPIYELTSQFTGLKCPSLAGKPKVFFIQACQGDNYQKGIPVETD
T1 sequence (Q14790 385-479 limits assumed): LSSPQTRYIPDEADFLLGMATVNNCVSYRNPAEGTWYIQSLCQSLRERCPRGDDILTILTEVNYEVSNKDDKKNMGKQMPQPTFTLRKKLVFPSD
Experimental: (§1) All kinetic measurements were performed using a Spectra Max Gemini XPS spectrofluorimeter (Molecular Devices) at 37 °C. For the substrates with the new donor acceptor pair, ACC/DNP, the excitation wavelength was 355 nm, and the emission wavelength was 460 nm; for MCA/DNP, the corresponding values were 325 and 420 nm, respectively. The substrate concentrations were varied, and the enzyme concentration was kept constant in each assay; the total reaction volume was 100 μl. Measurements were conducted for 30 min, and only the linear part of the progress curve was used to determine the reaction velocity. The measurements were repeated, and the data presented are the average of at least three measurements. The catalytic parameters kcat and KM were established using GraphPad Prism software to directly fit the initial velocities and initial substrate concentrations to the Michaelis-Menten equation using non-linear regression analysis.
(§2) Caspase assays were performed in a buffer containing 20 mM Pipes, 0.1 M NaCl, 1 mM EDTA, 10 mM DTT, and 10% (w/v) sucrose at pH 7.2 to 7.4[61]. The buffer used for caspase-8, caspase-9 and caspase-10 was supplemented with 1 M sodium citrate. Each caspase was incubated with assay buffer for 30 min at 37 °C before the substrates were added. For caspase-3, the concentration of substrates containing ACC or MCA on the measurement plate ranged from 1 to 50 μM, and the enzyme concentration ranged from 1 to 3 nM. For caspase-7, the concentration of substrates containing ACC or MCA on the measurement plate ranged from 1 to 50 μM, and the enzyme concentration ranged from 10 to 30 nM. For caspase-8, the concentration of a substrates containing ACC or MCA on the measurement plate ranged from 4 to 80 μM, and the enzyme concentration ranged from 20 to 50 nM.
(§3) To obtain further insight into the caspase P1-P1′ preferences, we determined the kinetic parameters for selected IQF substrates. The kinetic analysis was performed in a similar manner to that described above (Substrate Kinetics). The buffers used for caspase-8, caspase-9, and caspase-10 were supplemented with 1.0 M sodium citrate. The enzyme concentrations were as follows: caspase-3, 6 nM; caspase-7, 25 nM; caspase-8, 30–60 nM; caspase-9, 20–140 nM; and caspase-10, 25–125 nM. When testing initiator caspases, the higher enzyme concentration was used for non-optimal LEHE/X substrates.

caspase-3 [7] = target: T2, caspase-3 (Homo sapiens, UniProt P42574); test: IQF substrate hydrolysis kinetics with caspase-3; format: biochemical; conditions: substrate 1-50 μM, Pipes buffer pH 7.2-7.4, 37 °C, mean of at least three, SD <10%
T2 construct: made in house
T2 sequence (P42574 29-175 limits assumed): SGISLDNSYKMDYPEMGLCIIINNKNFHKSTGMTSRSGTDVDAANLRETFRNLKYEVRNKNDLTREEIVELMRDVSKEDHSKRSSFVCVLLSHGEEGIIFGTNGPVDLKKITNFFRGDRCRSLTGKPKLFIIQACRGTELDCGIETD
T2 sequence (P42574 176-277 limits assumed): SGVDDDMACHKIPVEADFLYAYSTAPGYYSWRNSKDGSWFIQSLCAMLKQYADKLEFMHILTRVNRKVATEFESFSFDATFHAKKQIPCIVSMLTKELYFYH
Experimental: as §1, §2, §3

caspase-7 [8] = target: T3, caspase-7 (Homo sapiens, UniProt P55210); test: IQF substrate hydrolysis kinetics with caspase-7; format: biochemical; conditions: substrate 1-50 μM, Pipes buffer pH 7.2-7.4, 37 °C, mean of at least three, SD <10%
T3 construct: made in house
T3 sequence (P55210 24-198 limits assumed): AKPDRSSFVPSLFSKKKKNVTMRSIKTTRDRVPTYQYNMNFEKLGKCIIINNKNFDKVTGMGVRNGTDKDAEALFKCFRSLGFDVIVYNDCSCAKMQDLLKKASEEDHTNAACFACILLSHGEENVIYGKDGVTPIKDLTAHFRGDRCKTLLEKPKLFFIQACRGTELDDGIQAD
T3 sequence (P55210 207-303 limits assumed): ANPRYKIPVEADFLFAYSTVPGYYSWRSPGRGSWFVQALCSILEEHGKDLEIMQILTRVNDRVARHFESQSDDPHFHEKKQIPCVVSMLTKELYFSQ
Experimental: as §1, §2, §3

[9] = target: T4, Human neutrophil elastase (Homo sapiens, UniProt P08246); test: IQF substrate hydrolysis kinetics with neutrophil elastase; format: biochemical; conditions: substrate 0.3-5 μM, 0.1 M HEPES, 0.5 M NaCl pH 7.5, 37 °C, mean of at least three, SD <10%
T4 construct: purchased Biocentrum (Krakow, Poland)
T4 sequence (P08246 30-267): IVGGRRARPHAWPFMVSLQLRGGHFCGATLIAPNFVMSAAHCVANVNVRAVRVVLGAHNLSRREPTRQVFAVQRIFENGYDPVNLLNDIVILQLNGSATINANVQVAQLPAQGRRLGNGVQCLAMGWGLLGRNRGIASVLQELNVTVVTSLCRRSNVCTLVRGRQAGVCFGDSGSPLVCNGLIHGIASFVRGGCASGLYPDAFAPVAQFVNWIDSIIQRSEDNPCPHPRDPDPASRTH
Experimental: as §1
Assays with neutrophil elastase were performed in a buffer containing 0.1 M HEPES and 0.5 M NaCl at pH 7.5[9]. The enzyme was incubated in assay buffer for 10 min at 37 °C prior to the substrate addition and the measurement. For elastase, the concentration of substrates containing ACC ranged from 0.3 to 5 μM, and the enzyme concentration was 0.344 nM. The concentration of substrates containing MCA was ranged from 0.3 to 5 μM, and the enzyme concentration was 1.4 nM.

[10] = ACC-GGLS(P1)*IVK(DNP)G-NH2 hydrolysis by trypsin, trypsin 0.1 nM (Arg, Lys), 30 nM (Arg(Me)), 200 nM (all others), 0.05 M Tris, 0.15 M NaCl, 0.01% Triton X100 pH 7.6, 37 °C, SD <10% (Arg/Lys), <15% (modified)
[11] = ACC/Lys(DNP) substrate, caspase-8 20 nM, ex 355/em 460 nm
[12] = ACC/Lys(DNP) substrate, caspase-3 1.0 nM, ex 355/em 460 nm
[13] = ACC/Lys(DNP) substrate, caspase-7 10 nM, ex 355/em 460 nm
[14] = ACC/Lys(DNP) substrate, elastase 0.34 nM, ex 355/em 460 nm
[15] = MCA/Lys(DNP) substrate, elastase 1.4 nM, ex 325/em 420 nm
[16] = MCA/Lys(DNP) substrate, caspase-8 50 nM, ex 325/em 420 nm
[17] = MCA/Lys(DNP) substrate, caspase-3 3.0 nM, ex 325/em 420 nm
[18] = MCA/Lys(DNP) substrate, caspase-7 30 nM, ex 325/em 420 nm

For Alanine, the KM (trypsin [1]; [10]) was “No measurable hydrolysis”, the kcat (trypsin [1]; [10]) was “No measurable hydrolysis” and the kcat/KM (trypsin [1]; [10]) was “No measurable hydrolysis”. For the same substance, the kcat/Km values (trypsin [1]) was “did not recognize”.
For ACC-GLEHD(G/A/S)KK(dnp)G-NH2 [LEHD/G], the cleaved bond (caspase-8 [2]) was “D-G”, the cleaved bond (caspase-9) was “D-G” and the cleaved bond (caspase-10) was “D-G”.
With “ACC-GGLS(P1)*IVK(DNP)G-NH2 [ACC-GGLS(P1)*IVK(DNP)G-NH2, P1 = Lysine]” the cleaved bond (Trypsin [3]) was “Lysine-I”.
With Ornithine the Km (trypsin [1]; [10]) was 21.9 µM, the kcat (trypsin [1]; [10]) was 0.0017 s⁻¹ and the kcat/KM (trypsin [1]; [10]) was 78 s^−1M^−1.
For ACC-GDEVD/XKK(dnp)G-NH2 [DEVD/S], the cleaved bond (caspase-3 [4]) was “D-S” and the cleaved bond (caspase-7 [5]) was “D-S”.
With “ACC-GGLS(P1)*IVK(DNP)G-NH2 [ACC-GGLS(P1)*IVK(DNP)G-NH2, P1 = Citrulline]” the cleaved bond (Trypsin [3]) was “Citrulline-I”.
In the case of Citrulline, the Km (trypsin [1]; [10]) is reported as 90.3 µM, the kcat (trypsin [1]; [10]) is reported as 0.000359 s⁻¹ and the kcat/KM (trypsin [1]; [10]) is reported as 4 s^−1M^−1.
For ACC-GDEVD/XKK(dnp)G-NH2 [DEVD/G], the cleaved bond (caspase-3 [4]) was “D-G” and the cleaved bond (caspase-7 [5]) was “D-G”.
In the case of ACC-GDEVD/XKK(dnp)G-NH2 [DEVD/A], the cleaved bond (caspase-3 [4]) is reported as “D-A” and the cleaved bond (caspase-7 [5]) is reported as “D-A”.
In the case of ACC-GLEHE(G/A/S)KK(dnp)G-NH2 [LEHE/G], the cleaved bond (caspase-8 [2]) is reported as “E-G”, the cleaved bond (caspase-9) is reported as “E-G” and the cleaved bond (caspase-10) is reported as “E-G”.
For “ACC-GGLS(P1)*IVK(DNP)G-NH2 [ACC-GGLS(P1)*IVK(DNP)G-NH2, P1 = Arginine]”, the cleaved bond (Trypsin [3]) was “Arginine-I”.
For “ACC-GDEVD*GVK(dnp)D-NH2 [ACC/Lys(DNP) internally quenched fluorescent substrate for caspases]”, the Km (caspase-8 [6]; [11]) was 11 µM, the kcat (caspase-8 [6]; [11]) was 0.32 s⁻¹ and the kcat/KM (caspase-8 [6]; [11]) was 29 400 M^−1s^−1. The Km (caspase-3 [7]; [12]) was 6.74 µM, the kcat (caspase-3 [7]; [12]) was 7.52 s⁻¹ and the kcat/KM (caspase-3 [7]; [12]) was 1 116 000 M^−1s^−1. For the same substance, the Km (caspase-7 [8]; [13]) was 8.36 µM, the kcat (caspase-7 [8]; [13]) was 0.47 s⁻¹ and the kcat/KM (caspase-7 [8]; [13]) was 56 800 M^−1s^−1.
For ACC-GLEHE(G/A/S)KK(dnp)G-NH2 [LEHE/S], the cleaved bond (caspase-8 [2]) was “E-S”, the cleaved bond (caspase-9) was “E-S” and the cleaved bond (caspase-10) was “E-S”.
“ACC-GAEPV*SLK(dnp)L-NH2 [ACC/Lys(DNP) internally quenched fluorescent substrate for human neutrophil elastase]” was tested, and the Km [9, 14] was 1.22 µM, the kcat [9, 14] was 2.44 s⁻¹ and the kcat/KM [9, 14] was 2 006 000 M^−1s^−1.
ACC-GLEHD(G/A/S)KK(dnp)G-NH2 [LEHD/S] was tested, and the cleaved bond (caspase-8 [2]) was “D-S”, the cleaved bond (caspase-9) was “D-S” and the cleaved bond (caspase-10) was “D-S”.
With ACC-GLEHD(G/A/S)KK(dnp)G-NH2 [LEHD/A] the cleaved bond (caspase-8 [2]) was “D-A”, the cleaved bond (caspase-9) was “D-A” and the cleaved bond (caspase-10) was “D-A”.
“MCA-GAEPV*SLK(dnp)L-NH2 [MCA/Lys(DNP) internally quenched fluorescent substrate for human neutrophil elastase]” was tested, and the Km [9, 15] was 2.27 µM, the kcat [9, 15] was 2.58 s⁻¹ and the kcat/KM [9, 15] was 1 147 219 M^−1s^−1.
Lysine was tested, and the Km (trypsin [1]; [10]) was 2.8 µM, the kcat (trypsin [1]; [10]) was 4.2 s⁻¹ and the kcat/KM (trypsin [1]; [10]) was 1 500 000 s^−1M^−1. For the same substance, the kcat/Km values (trypsin [1]) was 1,500,000 M^−1s^−1.
With “MCA-GDEVD*GVK(dnp)D-NH2 [MCA/Lys(DNP) internally quenched fluorescent substrate for caspases]” the Km (caspase-8 [6]; [16]) was 11.7 µM, the kcat (caspase-8 [6]; [16]) was 0.32 s⁻¹ and the kcat/KM (caspase-8 [6]; [16]) was 26 300 M^−1s^−1. For the same substance, the Km (caspase-3 [7]; [17]) was 4.67 µM, the kcat (caspase-3 [7]; [17]) was 11.24 s⁻¹ and the kcat/KM (caspase-3 [7]; [17]) was 2 359 000 M^−1s^−1. For the same substance, the Km (caspase-7 [8]; [18]) was 6.17 µM, the kcat (caspase-7 [8]; [18]) was 0.68 s⁻¹ and the kcat/KM (caspase-7 [8]; [18]) was 106 000 M^−1s^−1.
With ACC-GLEHE(G/A/S)KK(dnp)G-NH2 [LEHE/A] the cleaved bond (caspase-8 [2]) was “E-A”, the cleaved bond (caspase-9) was “E-A” and the cleaved bond (caspase-10) was “E-A”.
Arginine was tested, and the Km (trypsin [1]; [10]) was 2.5 µM, the kcat (trypsin [1]; [10]) was 24.1 s⁻¹ and the kcat/KM (trypsin [1]; [10]) was 9 624 000 s^−1M^−1. The kcat/Km values (trypsin [1]) was 9,624,000 M^−1s^−1.
In the case of ACC-GDEVE/XKK(dnp)G-NH2 [DEVE/S], the cleaved bond (caspase-3 [4]) is reported as “E-S” and the cleaved bond (caspase-7 [5]) is reported as “E-S”.
